Data as given in ChEMBL document CHEMBL4828763, “Discovery of Potent and Selective CDK9 Degraders for Targeting Transcription Regulation in Triple-Negative Breast Cancer” (J Med Chem, 2021).

Key:
Assay type in all cases: functional, cell-based
MDA-MB-468 = assay: Growth inhibition of human MDA-MB-468 cells assessed as cell viability measured after 4 days by WST8 assay; conditions: MDA-MB-468, 96 h
BT-549 = assay: Growth inhibition of human BT-549 cells assessed as cell viability measured after 4 days by WST8 assay; conditions: BT-549, 96 h
MDA-MB-231 = assay: Growth inhibition of human MDA-MB-231 cells assessed as cell viability measured after 4 days by WST8 assay; conditions: MDA-MB-231, 96 h

| Compound | IC50 (MDA-MB-468) | IC50 (BT-549) | IC50 (MDA-MB-231) |
| --- | --- | --- | --- |
| CC(C)c1cnn2c(NCc3ccccc3N(C)C)nc(OC3CCN(CCOCCNC(=O)COc4cccc5c4C(=O)N(C4CCC(=O)NC4=O)C5=O)CC3)nc12 (stereo not given) | > 20 µM | > 20 µM | > 20 µM |
| CC(C)c1cnn2c(NCc3ccccc3)nc(OC3CCN(CCOCCNC(=O)COc4cccc5c4C(=O)N(C4CCC(=O)NC4=O)C5=O)CC3)nc12 (stereo not given) | > 20 µM | > 20 µM | > 20 µM |
| CC(C)c1cnn2c(NCc3ccc(CCCCCCCOc4cccc5c4C(=O)N(C4CCC(=O)NC4=O)C5=O)cc3N(C)C)nc(OC3CCN(C)CC3)nc12 (stereo not given) | 2.87 µM | 4.11 µM | 4.16 µM |
| CC(C)c1cnn2c(NCc3cccc(CCCCCCCOc4cccc5c4C(=O)N(C4CCC(=O)NC4=O)C5=O)c3N(C)C)nc(OC3CCN(C)CC3)nc12 (stereo not given) | 3.45 µM | 2.01 µM | 4.16 µM |
| CC(C)c1cnn2c(NCc3ccccc3N(C)C)nc(OC3CCN(C)CC3)nc12 | 8.78 µM | 1.03 µM | 11.9 µM |
| CC(C)c1cnn2c(NCc3ccccc3)cc(NCCCCCCNCCOCCOCCOCCNC(=O)COc3cccc4c3C(=O)N(C3CCC(=O)NC3=O)C4=O)nc12 (stereo not given) | > 20 µM | > 20 µM | > 20 µM |
| CC(C)c1cnn2c(NCc3cc(CCCCCCNC(=O)COc4cccc5c4C(=O)N(C4CCC(=O)NC4=O)C5=O)ccc3N(C)C)nc(OC3CCN(C)CC3)nc12 (stereo not given) | 17.9 µM | 12.6 µM | 12.6 µM |
| CC(C)c1cnn2c(NCc3ccc(NC(=O)CCCCCOc4cccc5c4C(=O)N(C4CCC(=O)NC4=O)C5)cc3)nc(OC3CCN(C)CC3)nc12 (stereo not given) | 0.47 µM | 0.37 µM | 0.57 µM |
| CC(C)c1cnn2c(NCc3ccccc3)nc(OC3CCN(C)CC3)nc12 | 3.07 µM | 0.53 µM | 3.01 µM |
| CC(C)c1cnn2c(NCc3ccc(NC(=O)CCCCCN4CCN(CCCCCc5cccc6c5CN(C5CCC(=O)NC5=O)C6=O)CC4)cc3)nc(OC3CCN(C)CC3)nc12 (stereo not given) | 0.222 µM | 0.08 µM | 0.251 µM |
| CC(C)c1cnn2c(NCc3ccc(NC(=O)CCCCCN4CCN(CCCc5cccc6c5CN(C5CCC(=O)NC5=O)C6=O)CC4)cc3)nc(OC3CCN(C)CC3)nc12 (stereo not given) | 0.24 µM | 0.19 µM | 0.9 µM |
| CC(C)c1cnn2c(NCc3cccc(CCCCCCNC(=O)COc4cccc5c4C(=O)N(C4CCC(=O)NC4=O)C5=O)c3)cc(NCCCCCCN)nc12 (stereo not given) | 16.3 µM | 12.8 µM | > 20 µM |
| CC(C)c1cnn2c(NCc3ccc(CCCCCCNC(=O)COc4cccc5c4C(=O)N(C4CCC(=O)NC4=O)C5=O)cc3N(C)C)nc(OC3CCN(C)CC3)nc12 (stereo not given) | 5.24 µM | 8.39 µM | 5.28 µM |
| CC(C)c1cnn2c(NCc3ccc(CCCCCCCOc4cccc5c4C(=O)N(C4CCC(=O)NC4=O)C5=O)cc3)nc(OC3CCN(C)CC3)nc12 (stereo not given) | 3.22 µM | 2.06 µM | 4.32 µM |
| CC(C)c1cnn2c(NCc3ccc(NC(=O)CCCCCCNC(=O)COc4cccc5c4C(=O)N(C4CCC(=O)NC4=O)C5=O)cc3)nc(OC3CCN(C)CC3)nc12 (stereo not given) | 1.45 µM | 1.63 µM | 1.55 µM |
| CC(C)c1cnn2c(NCc3ccccc3)nc(OC3CCN(CCOCCOCCNC(=O)COc4cccc5c4C(=O)N(C4CCC(=O)NC4=O)C5=O)CC3)nc12 (stereo not given) | > 20 µM | 9.88 µM | > 20 µM |
| CC(C)c1cnn2c(NCc3ccc(NC(=O)CCCCCCNC(=O)COc4cccc5c4C(=O)N(C4CCC(=O)NC4=O)C5=O)cc3N(C)C)nc(OC3CCN(C)CC3)nc12 (stereo not given) | > 20 µM | 14.3 µM | > 20 µM |
| CC(C)c1cnn2c(NCc3ccc(NC(=O)COCCOCCOc4cccc5c4C(=O)N(C4CCC(=O)NC4=O)C5=O)cc3)nc(OC3CCN(C)CC3)nc12 (stereo not given) | 4.59 µM | 3.78 µM | 9.2 µM |

| Compound | IC50 (MDA-MB-468) | IC50 (BT-549) | IC50 (MDA-MB-231) |
| --- | --- | --- | --- |
| CC(C)c1cnn2c(NCc3cccc(NC(=O)CCCCCCNC(=O)COc4cccc5c4C(=O)N(C4CCC(=O)NC4=O)C5=O)c3)nc(OC3CCN(C)CC3)nc12 (stereo not given) | > 20 µM | 12.8 µM | > 20 µM |
| CC(C)c1cnn2c(NCc3ccc(NC(=O)COCCOCCOCCOc4cccc5c4C(=O)N(C4CCC(=O)NC4=O)C5=O)cc3)nc(OC3CCN(C)CC3)nc12 (stereo not given) | 4.37 µM | 4.69 µM | 10.3 µM |
| CC(C)c1cnn2c(NCc3ccc(NC(=O)CCCCCOc4cccc5c4C(=O)N(C4CCC(=O)NC4=O)C5=O)cc3)nc(OC3CCN(C)CC3)nc12 (stereo not given) | 0.56 µM | 0.64 µM | 0.95 µM |
| CC(C)c1cnn2c(NCc3ccc(NC(=O)N4CCN(CCCCCc5cccc6c5CN(C5CCC(=O)NC5=O)C6=O)CC4)cc3)nc(OC3CCN(C)CC3)nc12 (stereo not given) | 0.098 µM | 0.074 µM | 0.065 µM |
| CC(C)c1cnn2c(NCc3ccccc3)cc(NCCCCCCN)nc12 | 16.3 µM | 12.8 µM | 18.5 µM |
| CC(C)c1cnn2c(NCc3ccccc3)cc(NCCCCCCNCCOCCNC(=O)COc3cccc4c3C(=O)N(C3CCC(=O)NC3=O)C4=O)nc12 (stereo not given) | > 20 µM | > 20 µM | > 20 µM |
| CC(C)c1cnn2c(NCc3ccccc3-n3ccnc3)nc(OC3CCN(CCOCCNC(=O)COc4cccc5c4C(=O)N(C4CCC(=O)NC4=O)C5=O)CC3)nc12 (stereo not given) | 15.8 µM | > 20 µM | > 20 µM |
| CC(C)c1cnn2c(NCc3ccc(NC(=O)CCCCCCNc4cccc5c4C(=O)N(C4CCC(=O)NC4=O)C5=O)cc3)nc(OC3CCN(C)CC3)nc12 (stereo not given) | 0.66 µM | 0.55 µM | 0.53 µM |
| CC(C)c1cnn2c(NCc3ccc(CCCOCCOCCOc4cccc5c4C(=O)N(C4CCC(=O)NC4=O)C5=O)cc3)nc(OC3CCN(C)CC3)nc12 (stereo not given) | 3.37 µM | 1.57 µM | 4.45 µM |
| CC(C)c1cnn2c(NCc3ccc(CCCCCCNC(=O)COc4cccc5c4C(=O)N(C4CCC(=O)NC4=O)C5=O)cc3)cc(NCCCCCCN)nc12 (stereo not given) | 10.3 µM | 12.9 µM | 16.6 µM |
| CC(C)c1cnn2c(NCc3ccccc3-n3ccnc3)nc(OC3CCN(C)CC3)nc12 | 3.92 µM | 2.26 µM | 9.29 µM |
| CC(C)c1cnn2c(NCc3ccc(NC(=O)CCCN4CCN(CCCc5cccc6c5CN(C5CCC(=O)NC5=O)C6=O)CC4)cc3)nc(OC3CCN(C)CC3)nc12 (stereo not given) | 0.59 µM | 0.58 µM | 0.9 µM |
| CC(C)c1cnn2c(NCc3ccc(NC(=O)CCCCCCNc4cccc5c4C(=O)N(C4CCC(=O)NC4=O)C5=O)cc3N(C)C)nc(OC3CCN(C)CC3)nc12 (stereo not given) | 4.89 µM | 2.66 µM | 4.26 µM |
| CC(C)c1cnn2c(NCc3ccc(NC(=O)CCCN4CCN(CCCCCc5cccc6c5CN(C5CCC(=O)NC5=O)C6=O)CC4)cc3)nc(OC3CCN(C)CC3)nc12 (stereo not given) | 0.34 µM | 0.19 µM | 0.46 µM |
| CC(C)c1cnn2c(NCc3ccccc3-n3ccnc3)nc(OC3CCN(CCOCCOCCOCCNC(=O)COc4cccc5c4C(=O)N(C4CCC(=O)NC4=O)C5=O)CC3)nc12 (stereo not given) | > 20 µM | 21.5 µM | > 20 µM |
| CC(C)c1cnn2c(NCc3ccccc3N(C)C)nc(OC3CCN(CCOCCOCCOCCNC(=O)COc4cccc5c4C(=O)N(C4CCC(=O)NC4=O)C5=O)CC3)nc12 (stereo not given) | > 20 µM | > 20 µM | > 20 µM |
| CC(C)c1cnn2c(NCc3cc(NC(=O)CCCCCCNC(=O)COc4cccc5c4C(=O)N(C4CCC(=O)NC4=O)C5=O)ccc3N(C)C)nc(OC3CCN(C)CC3)nc12 (stereo not given) | > 20 µM | > 20 µM | > 20 µM |
